Source: ChEMBL document CHEMBL3638626, “1,3,5-triazine-2-amine derivatives, preparation thereof and diagnostic and therapeutic use thereof” (2015)

Molecular target: Cannabinoid receptor 2 (Homo sapiens, UniProt P34972)
Assay: Binding Assay: Affinity binding tests were performed according to the experimental conditions described by M. Rinaldi-Carmona in J. Pharmacol. Exp. Therap. 1998, 287, 644-650, with membranes derived either from rodent tissues or from recombinant cell lines in which the human CB2 receptors were expressed (Munro et al., Nature 1993, 365, 61-65). The affinity of the compounds is expressed in the form of the IC50 (concentration causing 50% inhibition of specific binding of the tritiated ligand used in vitro).

Sequence of Cannabinoid receptor 2 (P34972 whole entry): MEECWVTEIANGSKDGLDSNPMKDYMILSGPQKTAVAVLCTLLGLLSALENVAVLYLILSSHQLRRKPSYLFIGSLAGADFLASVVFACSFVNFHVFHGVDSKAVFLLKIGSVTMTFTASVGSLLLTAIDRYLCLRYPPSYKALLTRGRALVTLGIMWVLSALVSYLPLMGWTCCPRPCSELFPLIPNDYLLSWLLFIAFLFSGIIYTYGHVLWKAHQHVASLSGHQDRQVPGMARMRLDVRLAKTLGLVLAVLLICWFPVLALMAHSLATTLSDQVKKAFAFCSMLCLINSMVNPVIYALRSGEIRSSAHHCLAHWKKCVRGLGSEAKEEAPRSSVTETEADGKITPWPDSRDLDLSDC

COc1cccc(-c2nc(NCCc3ccc(F)cc3)nc(OC)n2)c1
IC50: 29 nM

COc1nc(NCCc2ccc(F)cc2)nc(-c2ccc(OC)c(S(=O)(=O)NC3CC3)c2)n1
IC50: 12 nM

COc1nc(NCCc2ccc(F)cc2)nc(-c2cc3c(Cl)cccc3[nH]2)n1
IC50: 7 nM

COc1nc(NCCc2ccc(F)cc2)nc(-c2cc3cc(F)ccc3[nH]2)n1
IC50: 12 nM

COc1nc(NCCc2ccc(OC(F)F)cc2)nc(-c2ccc(Cl)c(C(C)(C)O)c2)n1
IC50: 1.2 nM

COc1nc(NCCc2ccc(F)cc2)nc(-c2cccc(C(C)(C)O)c2)n1
IC50: 9 nM

COc1nc(NCCc2ccc(F)cc2)nc(-c2ccc(OC)c(C(C)(C)O)c2)n1
IC50: 1 nM

COc1nc(NCCc2ccc(F)cc2)nc(-c2ccc(Cl)c(O)c2)n1
IC50: 21 nM

CCOC(=O)COc1cc(-c2nc(NCCc3ccc(F)cc3)nc(OC)n2)ccc1Cl
IC50: 10 nM

COc1nc(NCCc2ccc(OC(F)F)cc2)nc(-c2ccc(Cl)c(OCCCNS(C)(=O)=O)c2)n1
IC50: 41 nM

COc1nc(NCCc2ccc(OCF)cc2)nc(-c2ccc(Cl)c(C(C)(C)O)c2)n1
IC50: 3.9 nM

COc1nc(NCCc2ccc(F)cc2)nc(-c2ccc(Cl)c(OCC(N)=O)c2)n1
IC50: 1 nM
